Experimental findings from ChEMBL document CHEMBL1146001, “Thiothalidomides: novel isosteric analogues of thalidomide with enhanced TNF-alpha inhibitory activity” (J Med Chem, 2003) are described below.

Experiment [1] has as its system TNF-alpha (Homo sapiens). The experiment can be described thus: Compound was tested for the inhibition of LPS-induced TNF-alpha production in human peripheral blood mononuclear cells (PBMC).
Experiment [2] relates to TNF-alpha (Homo sapiens). As to the kind of experiment: Compound was tested for the inhibition of LPS-induced TNF-alpha production in human peripheral blood mononuclear cells (PBMC) at 30 uM.

For the compound `O=C1c2ccccc2C(=S)N1C1C=CCCC1` (stereo not drawn), the IC50 in the experiment with TNF-alpha (Homo sapiens) [1] is 16 µM. In the experiment on TNF-alpha (Homo sapiens) [2], 30 µM produced 85% inhibition.
In the experiment with TNF-alpha (Homo sapiens) [1], `COC(=O)CCC(C(=O)OC)N1C(=S)c2ccccc2C1=S` (stereo not drawn) came in with a half-inhibitory concentration (IC50) of 10 µM. Moreover, in the experiment on TNF-alpha (Homo sapiens) [2], the inhibition at 30 µM was 85%.
On the same counts, the results for `O=C(O)CCC(C(=O)O)N1C(=O)c2ccccc2C1=S` (stereo not drawn) are over 30 µM and 20%.
The like results for `S=C1CCCC(=S)N1` were, in that order, 8 µM and 75%.
`S=C1NC(=S)c2ccccc21`: inhibition with TNF-alpha (Homo sapiens) [1] was half-maximal at 3 µM (IC50). Also, the inhibition at 30 µM in the experiment on TNF-alpha (Homo sapiens) [2] came out at 95%.
The like results for `O=C1CCC(N2C(=O)c3ccccc3C2=S)C(=O)N1` (stereo not drawn) were, in that order, over 30 µM and 23%.
As to `O=C1c2ccccc2C(=O)N1C1CCC(=S)NC1=S` (stereo not drawn), 20 µM corresponded to half-maximal inhibition with TNF-alpha (Homo sapiens) [1] (IC50). Also, testing at 30 µM in the experiment with TNF-alpha (Homo sapiens) [2] gave an inhibition of 52%.
As to `O=C1NC(=S)c2ccccc21`, the IC50 in the experiment with TNF-alpha (Homo sapiens) [1] is over 30 µM. In the experiment on TNF-alpha (Homo sapiens) [2], this compound returned an inhibition at 30 µM of 34%.
Compound `O=C1NC(=S)CCC1N1C(=O)c2ccccc2C1=O` (stereo not drawn) came in with an IC50 with TNF-alpha (Homo sapiens) [1] of over 30 µM. This compound had an inhibition at 30 µM with TNF-alpha (Homo sapiens) [2] of 31%.
The like results for `O=C1c2ccccc2C(=S)N1C1CCC(=S)NC1=S` (stereo not drawn) were, in that order, 6 µM and 79%.
On the same counts, the results for `COC(=O)CCC(C(=O)OC)N1C(=O)c2ccccc2C1=S` (stereo not drawn) are 20 µM and 56%.
On the same counts, the results for `O=C1NC(=S)CCC1N1C(=O)c2ccccc2C1=S` (stereo not drawn) are 11 µM and 61%.
Regarding `S=C1c2ccccc2C(=S)N1C1C=CCCC1` (stereo not drawn), inhibition with TNF-alpha (Homo sapiens) [1] was half-maximal at 15 µM (IC50). Further, the inhibition at 30 µM with TNF-alpha (Homo sapiens) [2] was found to be 86%.
On the same counts, the results for `O=C1CCCC(=S)N1` are over 30 µM and 15%.

For orientation: IC50 means the concentration needed to halve the response being measured. A low value points to inhibition by little substance. As a reminder, the inhibition is the relative decrease from the control value, in per cent. Higher therefore signals a response far below the control.
